Source: EP3050567B1, “COMPOUND FOR ACTIVATING AMPK AND USES THEREOF” (Energenesis Biomedical Co., Ltd., priority 2013, dated 2015)

Legend:
AMPK [1] = test: AMPK activation assay (phospho-AMPK Thr172 western blot) in HUVEC cells; format: cell-based, human; conditions: 30 min
Procedure: (§1) Effects of adenine on AMPK activation were evaluated based on the phosphorylation of AMPK protein upon adenine treatment. Mouse muscle cell C2C12, mouse fibroblast 3T3, human liver carcinoma cell Hep G2, human breast adenocarcinoma cell line MCF7 and human colon adenocarcinoma grade II cell line HT29, human umbilical vein endothelial cell HUVEC, Human acute monocytic leukemiacell THP1, human macrophage cell U937, murine microglia cell BV-2, and mouse neuroblastoma cell Neuro2A and dermal papilla cell were cultured in high-glucose Dulbecco's modified Eagle's medium (DMEM) containing 10% fetal bovine serum (FBS), 4 mM L-glutamine, 2 mM sodium pyruvate and 1% penicillin/streptomycin (Invitrogen GibcoBRL, Carlsbad, Calif., USA) at 37°C, under 5% CO2. Cells were plated at 3 × 10^5 per well in 6-well plates. Twenty-four hours after plating, adenine was added to the culture media as indicated. After 30 min cells were lysed and subject to western blot analysis. Equal amount of protein from each sample was separated by SDS-PAGE and then electroblotted on to PVDF membranes. Membranes were blocked with 3% BSA in PBS for 60 min and incubated with an anti-phospho-AMPK (Thr172) antibody (1:2,000, Cell signaling) or an anti-AMPK antibody (1:2,000, Cell signaling) at 4°C for 16 h followed by the corresponding secondary antibody for 1 h at room temperature (RT). Immunoreactive bands were detected by enhanced chemiluminescence and recorded using Kodak film. The detected signals were scanned and then quantified using TotalLab Quant software (TotalLab).

AMPK [2] = test: AMPK activation assay (phospho-AMPK Thr172 western blot) in BV-2 cells; format: cell-based, murine; conditions: 30 min
Procedure: as §1

AMPK [3] = test: AMPK activation assay (phospho-AMPK Thr172 western blot) in Neuro2A cells; format: cell-based, mouse; conditions: 30 min
Procedure: as §1

muscle cell C2C12 = test: Glucose uptake in vitro (fluorescent glucose analog 2-NBDG); format: cell-based, Mouse; conditions: C2C12 cells, 30 min, mean±SEM of three experiments
Procedure: Effects of adenine on glucose uptake were analyzed by measuring the uptake of fluorescent glucose analog (2-NBDG, Molecular Probes) in muscle cell C2C12. C2C12 cells were treated with indicated concentrations of adenine for 30 min at 37°C, and then incubated with 500 µM of fluorescent glucose analog. After 5 min incubation at room temperature, cells were washed three times with Kreb-Hepes buffered solution and fixed in 70% alcohol. The fluorescence of glucose analog in cells was measured using a Fluorescence Microplate Reader System.

LC3 = test: Autophagy assay (LC3-II/LC3-I western blot) in Neuro2A cells; format: cell-based, mouse; conditions: 24 h
Procedure: Effects of adenine on Amyloid β peptide were analyzed in mouse neuroblastoma cell Neuro2A. Neuro2A cells were cultured in high-glucose Dulbecco's modified Eagle's medium (DMEM) containing 10% fetal bovine serum (FBS), 4 mM L-glutamine, 2 mM sodium pyruvate and 1% penicillin/streptomycin (Invitrogen GibcoBRL, Carlsbad, Calif., USA) at 37°C under 5% CO2. Cells were plated at 3 × 10^5 per well (6-well plate). 24 h after plating, cells were transfected with human APP695 and treated with indicated concentration of adenine for 24 h followed by cell lysis and western blot analysis. Equal amounts of protein were separated by SDS-PAGE and then electroblotted on to PVDF membranes. Membranes were blocked with 3% BSA in PBS for 60 min and incubated with an anti-Aβ antibody (1:1,000, abcam), an anti-LC3 antibody (1:1,000, Cell signaling), and an anti-actin antibody (1:5,000, Cell signaling) at 4°C for 16 h followed by the corresponding secondary antibody for 1 h at room temperature (RT). Immunoreactive bands were detected by enhanced chemiluminescence and recorded using Kodakfilm. The detected signals were scanned and then quantified by using TotalLab Quant software (TotalLab).

[4] = test system: 6-mm full-thickness excisional skin wounds; test: Wound healing and scar formation, excisional skin wounds in mice; format: in vivo, C57BL/6J mice; conditions: 14 days
Procedure: C57BL/6J mice were maintained at 22°C under a 12-h light/dark cycle. The experiments were performed with 12-week-old mice. After anesthetized by an intraperitoneal injection of ketamine (500 mg/kg) and xylazine (100 mg/kg), 6-mm full-thickness excisional skin wounds was made on the backs of mice using 6-mm skin biopsy punches. Immediately after wounding, 10-1200 µM of adenine or saline alone was applied to the wound bed. The skin wounds were then covered by semipermeable transparent dressing and fixed to the skin. The mice were treated with adenine or vehicle for 14 days and then sacrificed. The scar formation is assessed by Masson's trichrome staining (the tissue was fixed by 4% paraformaldehyde).

[5] = test system: Human umbilical vein endothelial cells (HUVECs); test: ROS production (H2DCF-DA) under high glucose; format: cell-based; conditions: 30 mM glucose, 24 h
Procedure: Human umbilical vein endothelial cells (HUVECs) were cultured in Dulbecco's modified Eagle's medium (DMEM) containing 10% fetal bovine serum (FBS), 4 mM L-glutamine, 2 mM sodium pyruvate and 1% penicillin/streptomycin (Invitrogen GibcoBRL, Carlsbad, Calif., USA) at 37°C under 5% CO2. Cells were plated at 2×10^4 per well in black 96-well. Twenty-four hours after plating, medium was changed to fresh DMEM containing either 5.6 or 30 mM glucose and treated with indicated concentration of adenine. Twenty-four hours after treatment, the intracellular ROS was detected using H2DCF-DA. Cells were washed once with PBS and then incubated with 100 µM DCF at 37°C for 30 min. Then the fluorescence of DCF was measured using a Fluorescence Microplate Reader System at 485-nm excitation and 530-nm emission wavelengths.

In the case of Nc1ncnc2nc[nH]c12 [Adenine, adenine], the “AMPK activation (fold to control)” value (AMPK [1]; adenine 1 microM) is reported as 1.2 fold to control, the “AMPK activation (fold to control)” value (AMPK [1]; adenine 10 microM) is reported as 1.9 fold to control and the “AMPK activation (fold to control)” value (AMPK [1]; adenine 100 microM) is reported as 3.2 fold to control. For the same compound, the “AMPK activation (fold to control)” value (AMPK [1]; adenine 200 microM) was 3.9 fold to control, the “AMPK activation (fold to control)” value (AMPK [1]; adenine 600 microM) was 4.1 fold to control and the “AMPK activation (fold to control)” value (AMPK [2]; adenine 1 microM) was 1.2 fold to control. For the same compound, the “AMPK activation (fold to control)” value (AMPK [2]; adenine 10 microM) was 1.7 fold to control, the “AMPK activation (fold to control)” value (AMPK [2]; adenine 40 microM) was 2.6 fold to control and the “AMPK activation (fold to control)” value (AMPK [2]; adenine 160 microM) was 3.2 fold to control. The “AMPK activation (fold to control)” value (AMPK [3]; adenine 1 microM) was 1.2 fold to control, the “AMPK activation (fold to control)” value (AMPK [3]; adenine 10 microM) was 2.1 fold to control and the “AMPK activation (fold to control)” value (AMPK [3]; adenine 100 microM) was 3.4 fold to control. The “Glucose uptake (% to control)” value (muscle cell C2C12; adenine 1 microM) was 117±8.1 % to control, the “Glucose uptake (% to control)” value (muscle cell C2C12; adenine 10 microM) was 261±13.4 % to control and the “Glucose uptake (% to control)” value (muscle cell C2C12; adenine 100 microM) was 315±11.9 % to control. For the same compound, the “Glucose uptake (% to control)” value (muscle cell C2C12; adenine 600 microM) was 338±16.5 % to control, the “LC3-II/LC3-I ratio (relative to control)” value (LC3; adenine 10 microM) was 1.2 ± 0.1 relative to control and the “LC3-II/LC3-I ratio (relative to control)” value (LC3; adenine 20 microM) was 1.8 ± 0.3 relative to control. For the same compound, the “LC3-II/LC3-I ratio (relative to control)” value (LC3; adenine 30 microM) was 2.8 ± 0.2 relative to control, the “LC3-II/LC3-I ratio (relative to control)” value (LC3; adenine 40 microM) was 2.9 ± 0.2 relative to control and the “LC3-II/LC3-I ratio (relative to control)” value (LC3; adenine 50 microM) was 3.2 ± 0.3 relative to control. For the same compound, the extent of closure ([4]; topical 10-1200 µM adenine on wound bed, dose-dependent, vs control mice) was “significantly greater”, the scar width ([4]; topical 10-1200 µM adenine, histological examination, vs vehicle treated wounds) was “significantly decreased” and the “ROS production (% of 5.6 mM glucose)” value ([5]; adenine 10 microM) was 211 ± 4.3 % of 5.6 mM glucose. The “ROS production (% of 5.6 mM glucose)” value ([5]; adenine 100 microM) was 116 ± 1.7 % of 5.6 mM glucose, the “ROS production (% of 5.6 mM glucose)” value ([5]; adenine 200 microM) was 38.1 ± 2.9 % of 5.6 mM glucose and the “ROS production (% of 5.6 mM glucose)” value ([5]; adenine 600 microM) was 21.7 ± 3.1 % of 5.6 mM glucose. The “ROS production (% of 5.6 mM glucose)” value ([5]; adenine 1200 microM) was 22.4 ± 2.5 % of 5.6 mM glucose.
